Reference: article PMC7496096, “Functional Characterisation of ClpP Mutations Conferring Resistance to Acyldepsipeptide Antibiotics in Firmicutes” (Chembiochem, 2020)
≈ marks a conversion by molar mass, not a printed value.

Legend:
[1] = system: S. aureus 133; assay: microbe, parasite or virus in culture; assay type: cell-based, Staphylococcus aureus; settings: broth microdilution, Mueller-Hinton broth (without cation adjustment), CLSI, inoculum 5×10^4 CFU mL^−1; wild type
Protocol: (§1) Determination of antibacterial activity: ADEP1 was purified from the culture supernatant of S. hawaiiensis NRRL 15010 as described.4 ADEPs 2, 4, 7, 9 were custom synthesised by EMC Microcollections, Tübingen, or provided by AiCuris, Wuppertal, Germany. The minimal inhibitory concentration (MIC) was determined by broth microdilution in Mueller‐Hinton broth (without cation adjustment) according to the guidelines of the Clinical Laboratory Standards Institute (CLSI).69 The inoculum was set to 5×10^4 CFU mL^−1 to allow some distance to the determined spontaneous resistance frequencies. […] All other ADEPs were used from DMSO stock solutions kept at −20 °C.

[2] = system: S. aureus ATCC 29213; assay: microbe, parasite or virus in culture; assay type: cell-based, Staphylococcus aureus; settings: broth microdilution, Mueller-Hinton broth (without cation adjustment), CLSI, inoculum 5×10^4 CFU mL^−1; wild type
Protocol: as §1

[3] = system: B. subtilis 168; assay: microbe, parasite or virus in culture; assay type: cell-based, Bacillus subtilis; settings: broth microdilution, Mueller-Hinton broth (without cation adjustment), CLSI, inoculum 5×10^4 CFU mL^−1; wild type
Protocol: as §1

[4] = system: S. pneumoniae G9A; assay type: cell-based, Streptococcus pneumoniae; settings: broth microdilution, Mueller-Hinton broth; wildtype
Protocol: as §1

[5] = system: E. faecium RC3; assay type: cell-based, Enterococcus faecium; settings: resistant clone of E. faecium L4001; ClpP G127→A (equatorial interface)
Protocol: as §1
(§2) Screening for ADEP‐resistant mutants and determination of resistance rates: Single colonies of wild‐type strains grown on Mueller‐Hinton agar plates overnight were suspended in sterile saline and a final inoculum of 5×10^6 cells was spread on plates supplemented with different ADEP congeners at 4× and 10× the MIC. For B. subtilis strain 3xclpP, ADEP7‐containing Mueller‐Hinton agar plates were additionally supplemented with 1 mM IPTG. Resistant colonies were counted after 24 h at 37 °C and colonies were randomly chosen for MIC determinations and sequencing. Mutations in the clpP gene of the respective isolated mutants were analysed by amplifying the clpP gene (and upstream promoter region) by PCR and sequencing of the resulting PCR amplicons (LGC genomics). Sequencing data were analysed by using SnapGene software (GSL Biotech).

[6] = system: E. faecium RC1; assay type: cell-based, Enterococcus faecium; settings: resistant clone of E. faecium L4001; ClpP I29→T, ADEP binding site
Protocol: as §1, §2

[7] = system: E. faecium RC2; assay type: cell-based, Enterococcus faecium; settings: resistant clone of E. faecium L4001; insertion of IS30 family transposase between promotor and start codon, no expression
Protocol: as §1, §2

[8] = system: S. aureus 133; assay: Spontaneous resistance rate on ADEP-containing agar; assay type: cell-based, Staphylococcus aureus; settings: ADEP exposure 4× MIC in Mueller-Hinton agar; 5×10^6 cells plated, colonies counted after 24 h at 37 °C
Protocol: as §2

[9] = system: S. aureus ATCC 29213; assay: as above; assay type: cell-based, Staphylococcus aureus; settings: 5×10^6 cells plated, colonies counted after 24 h at 37 °C
Protocol: as §2

[10] = system: B. subtilis RC1; assay type: cell-based, Bacillus subtilis; settings: resistant clone of B. subtilis 168; ClpP E156→STOP, premature stop
Protocol: as §1, §2

[11] = system: B. subtilis RC2; assay type: cell-based, Bacillus subtilis; settings: resistant clone of B. subtilis 168; ClpP L3→STOP, premature stop
Protocol: as §1, §2

[12] = system: B. subtilis 3xclpP clones; assay type: cell-based, Bacillus subtilis; settings: B. subtilis 3xclpP resistant clones
Protocol: as §1, §2

[13] = system: B. subtilis RC4; assay type: cell-based, Bacillus subtilis; settings: resistant clone of B. subtilis 168; G insertion, frame shift, premature stop (E163→STOP)
Protocol: as §1, §2

[14] = system: B. subtilis RC6; assay type: cell-based, Bacillus subtilis; settings: resistant clone of B. subtilis 168; ClpP N65→N; Y183→F (C-terminus; α7)
Protocol: as §1, §2

[15] = system: B. subtilis RC3; assay type: cell-based, Bacillus subtilis; settings: resistant clone of B. subtilis 168; ClpP A76→T (ClpP core; α3)
Protocol: as §1, §2

[16] = system: B. subtilis RC11; assay type: cell-based, Bacillus subtilis; settings: resistant clone of B. subtilis 168; ClpP Q132→STOP, premature stop
Protocol: as §1, §2

[17] = system: B. subtilis RC10; assay type: cell-based, Bacillus subtilis; settings: resistant clone of B. subtilis 168; ClpP A177→V (C-terminus; α7)
Protocol: as §1, §2

[18] = system: B. subtilis RC5; assay type: cell-based, Bacillus subtilis; settings: resistant clone of B. subtilis 168; ClpP K85→STOP, premature stop
Protocol: as §1, §2

[19] = system: B. subtilis RC8; assay type: cell-based, Bacillus subtilis; settings: resistant clone of B. subtilis 168; ClpP R142→H, intra-ring interaction
Protocol: as §1, §2

[20] = system: B. subtilis RC12; assay type: cell-based, Bacillus subtilis; settings: resistant clone of B. subtilis 168; ClpP A101→T (ClpP core; α4)
Protocol: as §1, §2

[21] = system: B. subtilis RC7; assay type: cell-based, Bacillus subtilis; settings: resistant clone of B. subtilis 168; ClpP Q132→STOP, premature stop
Protocol: as §1, §2

[22] = system: B. subtilis RC9; assay type: cell-based, Bacillus subtilis; settings: resistant clone of B. subtilis 168; ClpP I165→N (equatorial interface; α6)
Protocol: as §1, §2

SMILES: C[C@@H]1C[C@H]2C(=O)OC[C@H](NC(=O)[C@H](Cc3cc(F)cc(F)c3)NC(=O)CCC3CCCCC3)C(=O)N3CCC[C@H]3C(=O)N3CCCC[C@H]3C(=O)N[C@@H](C)C(=O)N2C1 [ADEP2]
- MIC [1]: 0.031 µg/mL (≈ 0.0388 µM)
- MIC [2]: 0.125 µg/mL (≈ 0.156 µM)
- MIC [3]: ≤0.031 µg/mL
- MIC [4]: ≤0.063 µg/mL
- MIC [5]: 4 µg/mL (≈ 5.01 µM)
- MIC [6]: 0.125 µg/mL (≈ 0.156 µM)
- MIC [7]: >16 µg/mL
- Resistance rate [8]: 3×10^−6
- Resistance rate ([9]; ADEP exposure 4× MIC in Mueller-Hinton agar): 7×10^−7
- Resistance rate ([9]; ADEP exposure 10× MIC in Mueller-Hinton agar): 7×10^−7
- MIC [10]: >64 µg/mL
- MIC [11]: >64 µg/mL
- MIC, clpP mutations in the ectopic loci ([12]; mutation in lacA or aprE ectopic copy): ~1 µg/mL (≈ 1.25 µM)
- MIC, clpP mutation in the original locus ([12]; mutation in native clpP locus): > 64 µg/mL
- MIC [13]: >64 µg/mL
- MIC [14]: >64 µg/mL
- MIC [15]: 16 to 32 µg/mL
- MIC [16]: >64 µg/mL
- MIC [17]: >64 µg/mL
- MIC [18]: >64 µg/mL
- MIC [19]: >64 µg/mL
- MIC [20]: >64 µg/mL
- MIC [21]: >64 µg/mL
- MIC [22]: >64 µg/mL
